US4360595A, “Fermentation process for producing anandimycin” (Bristol-Myers Company, priority 1981, dated 1982)
Converted amounts (≈) assume the structure as drawn. Read-outs that look alike come from different tables or passages of the source.

Key:
[1] = test system: E. coli; test: lysogenic bacterial induction (ILB) assay; type: cell-based
Excerpt: Analytical high pressure liquid chromatography, Bacillus subtilis zone of inhibition, lysogenic bacterial induction and P388 mouse tumor assays are used throughout the above-described separation processes to monitor relative levels of anandimycin and co-produced substances.

[2] = test system: P-388 leukemia; test: transplantable mouse tumor P-388 leukemia; type: in vivo, mouse (CDF1 female mice); details: for MST: control 9.0 days; for Effect MST % T/C: ≥ 125 significant
Method: Anandimycin was also tested against the transplantable mouse tumor P-388 leukemia. The methodology used generally followed the protocols of the National Cancer Institute (Cancer Chemotherapy Rep., Part 3, 3, 1-103 (1972). The essential experimental details are given at the bottom of the following table. Two different dose regimens are tested: single dose on day 1 and three doses given on days 1, 5 and 9. The optimal dose was 64 mg/kg. single dose.
Tumor inoculum: 10^6 ascites cells implanted
Host: CDF1 .female. mice
Evaluation: MST = median survival
Effect: % T/C = (MST treated/MST control) ×
Criteria: % T/C ≥ 125 considered significant antitumor
Tox: […] 4/6 mice alive on day 5
AWC = average weight gain (treatedcontrol) in grams (on day 4)

[3] = test system: tumors; test: antitumor activity (in words); set-up: species or system experimental animals; details: in vivo
[4] = test system: K. pneumoniae 15130; test: in vitro MIC, standard tube dilution procedure; type: cell-based
Method: (§1) The in vitro minimum inhibitory concentrations (MIC) of anandimycin were determined against a variety of microorganisms using the standard tube dilution procedure.

[5] = test system: Pr. vulgaris 21559; test: in vitro MIC, standard tube dilution procedure; type: cell-based
Method: as §1

[6] = test system: Str. pneumoniae 9585; test: in vitro MIC, standard tube dilution procedure; type: cell-based
Method: as §1

[7] = test system: Staph. aureus 9587; test: in vitro MIC, standard tube dilution procedure; type: cell-based
Method: as §1

[8] = test system: Str. faecalis 20,588; test: in vitro MIC, standard tube dilution procedure; type: cell-based; details: Enterococcus faecalis, read-out: Minimum Inhibitory Concentration
Method: as §1

[9] = test system: Ent. cloacae 9659; test: in vitro MIC, standard tube dilution procedure; type: cell-based
Method: as §1

[10] = test system: Staph. aureus (penicillin-resistant) 9606; test: in vitro MIC, standard tube dilution procedure; type: cell-based; details: Staphylococcus aureus, read-out: Minimum Inhibitory Concentration
Method: as §1

[11] = test system: Ps. aeruginosa 9843A; test: in vitro MIC, standard tube dilution procedure; type: cell-based; details: Pseudomonas aeruginosa, read-out: Minimum Inhibitory Concentration
Method: as §1

[12] = test system: Ser. marcescens 20019; test: in vitro MIC, standard tube dilution procedure; type: cell-based
Method: as §1

[13] = test system: E. coli 15119; test: in vitro MIC, standard tube dilution procedure; type: cell-based
Method: as §1

[14] = test system: Str. pyogenes 9604; test: in vitro MIC, standard tube dilution procedure; type: cell-based
Method: as §1

[15] = test system: Pr. mirabilis 9900; test: in vitro MIC, standard tube dilution procedure; type: cell-based
Method: as §1

[16] = test system: E. coli 20341-1; test: in vitro MIC, standard tube dilution procedure; type: cell-based
Method: as §1

[17] = antimicrobial / antibiotic activity (in words); type: cell-based
[18] = solubility in organic solvents (trituration, chromatography); type: physicochemical; details: for solubility in chromatography solvents: solvents for (preparative) chromatography
Excerpt: The solids obtained from extraction of the whole broth are next washed with diethyl ether to remove any lard oils and antifoams used in the fermentation. […] To remedy this problem a simple organic solvent trituration scheme was developed which effects a gross separation of the yellow pigments and another class of antitumor agents produced by strain C-22,437 (rachelmycin) from anandimycin on the basis of differential solubility. […] The first step involves trituration of the extraction solids with acetone. The resulting filtrate contains another antitumor substance which is active in the lysogenic bacteria induction assay and the P388 mouse tumor system (rachelmycin). The insoluble solid from the acetone trituration contains the yellow pigments along with a complex of anandimycin and another similar compound. The second phase of the process involves trituration with a ternary organic solvent system 40:30:30(^v/v) chloroform:methanol:tetrahydrofuran. The soluble fraction contains the yellow pigments. […] Substantially pure anandimycin is separated from the enriched mixture using high pressure liquid chromatography on silica gel as described in more detail below.
The analytical solvent system routinely used is hexane:ethyl acetate:isopropanol (30:70:3^v /v) along with 0.1 to 0.4 part water depending on the relative activity state of the silica gel surface in the column being used. If tailing effects are observed, then typically one increases the water content of the solvent system within the 0.1-0.4 part range to improve peak symmetry, thereby permitting a more quantitative analysis.
The preparative solvent system is ethyl acetate:isopropanol:water (87:13:0.5^v /v). […] A shave-recycle method involves increasing the effective silica gel column length through the employment of continuous multiple pass chromatography of the anandimycin-component II band. […] Initial chromatography gave anandimycin enriched to 70-85% purity. Accumulated solids are rechromatographed to yield material of >90% purity. […]

[19] = biological activity (in words)

Structure (SMILES): C=Cc1cc(OC)c2c(c1)c(=O)oc1c2cc(OC)c2c(O)ccc(C3OC(C(C)O)C(O)C3O)c21 (stereo not shown) [Anandimycin]
- toxicity to the host organism (E. coli) ([1]; above 1.6 μg/ml): toxic to the host organism
- ILB activity ([1]; maximum concentration of 1.6 μg/ml): completely devoid of ILB activity
- AWC Day 4 ([2]; d.1,5&9, IP, 0.5 mg/kg/inj.): -0.1 gm.
- Survivors Day 5(30) ([2]; d.1,5&9, IP, 0.5 mg/kg/inj.): 6/6
- MST ([2]; d.1,5&9, IP, 0.5 mg/kg/inj.): 9.0 days
- Effect MST % T/C ([2]; d.1,5&9, IP, 0.5 mg/kg/inj.): 100%
- AWC Day 4 ([2]; d.1,5&9, IP, 1 mg/kg/inj.): +0.6 gm.
- Survivors Day 5(30) ([2]; d.1,5&9, IP, 1 mg/kg/inj.): 6/6
- MST ([2]; d.1,5&9, IP, 1 mg/kg/inj.): 9.0 days
- Effect MST % T/C ([2]; d.1,5&9, IP, 1 mg/kg/inj.): 100%
- AWC Day 4 ([2]; d.1,5&9, IP, 2 mg/kg/inj.): +0.2 gm.
- Survivors Day 5(30) ([2]; d.1,5&9, IP, 2 mg/kg/inj.): 6/6
- MST ([2]; d.1,5&9, IP, 2 mg/kg/inj.): 9.0 days
- Effect MST % T/C ([2]; d.1,5&9, IP, 2 mg/kg/inj.): 100%
- AWC Day 4 ([2]; d.1,5&9, IP, 4 mg/kg/inj.): +0.7 gm.
- Survivors Day 5(30) ([2]; d.1,5&9, IP, 4 mg/kg/inj.): 6/6
- MST ([2]; d.1,5&9, IP, 4 mg/kg/inj.): 10.5 days
- Effect MST % T/C ([2]; d.1,5&9, IP, 4 mg/kg/inj.): 117%
- AWC Day 4 ([2]; d.1,5&9, IP, 8 mg/kg/inj.): +0.2 gm.
- Survivors Day 5(30) ([2]; d.1,5&9, IP, 8 mg/kg/inj.): 6/6
- MST ([2]; d.1,5&9, IP, 8 mg/kg/inj.): 13.5 days
- Effect MST % T/C ([2]; d.1,5&9, IP, 8 mg/kg/inj.): 150%
- AWC Day 4 ([2]; d.1,5&9, IP, 16 mg/kg/inj.): 0 gm.
- Survivors Day 5(30) ([2]; d.1,5&9, IP, 16 mg/kg/inj.): 5/5
- MST ([2]; d.1,5&9, IP, 16 mg/kg/inj.): 13.0 days
- Effect MST % T/C ([2]; d.1,5&9, IP, 16 mg/kg/inj.): 144%
- AWC Day 4 ([2]; d.1, IP, 0.5 mg/kg/inj.): -0.1 gm.
- Survivors Day 5(30) ([2]; d.1, IP, 0.5 mg/kg/inj.): 6/6
- MST ([2]; d.1, IP, 0.5 mg/kg/inj.): 9.0 days
- Effect MST % T/C ([2]; d.1, IP, 0.5 mg/kg/inj.): 100%
- AWC Day 4 ([2]; d.1, IP, 1 mg/kg/inj.): -0.1 gm.
- Survivors Day 5(30) ([2]; d.1, IP, 1 mg/kg/inj.): 6/6
- MST ([2]; d.1, IP, 1 mg/kg/inj.): 9.0 days
- Effect MST % T/C ([2]; d.1, IP, 1 mg/kg/inj.): 100%
- AWC Day 4 ([2]; d.1, IP, 2 mg/kg/inj.): -0.2 gm.
- Survivors Day 5(30) ([2]; d.1, IP, 2 mg/kg/inj.): 5/5
- MST ([2]; d.1, IP, 2 mg/kg/inj.): 10.0 days
- Effect MST % T/C ([2]; d.1, IP, 2 mg/kg/inj.): 111%
- AWC Day 4 ([2]; d.1, IP, 4 mg/kg/inj.): -0.9 gm.
- Survivors Day 5(30) ([2]; d.1, IP, 4 mg/kg/inj.): 6/6
- MST ([2]; d.1, IP, 4 mg/kg/inj.): 10.0 days
- Effect MST % T/C ([2]; d.1, IP, 4 mg/kg/inj.): 111%
- AWC Day 4 ([2]; d.1, IP, 8 mg/kg/inj.): -0.2 gm.
- Survivors Day 5(30) ([2]; d.1, IP, 8 mg/kg/inj.): 6/6
- MST ([2]; d.1, IP, 8 mg/kg/inj.): 11.5 days
- Effect MST % T/C ([2]; d.1, IP, 8 mg/kg/inj.): 128%
- AWC Day 4 ([2]; d.1, IP, 16 mg/kg/inj.): -0.6 gm.
- Survivors Day 5(30) ([2]; d.1, IP, 16 mg/kg/inj.): 6/6
- MST ([2]; d.1, IP, 16 mg/kg/inj.): 11.0 days
- Effect MST % T/C ([2]; d.1, IP, 16 mg/kg/inj.): 122%
- AWC Day 4 ([2]; d.1, IP, 32 mg/kg/inj.): -0.6 gm.
- Survivors Day 5(30) ([2]; d.1, IP, 32 mg/kg/inj.): 6/6
- MST ([2]; d.1, IP, 32 mg/kg/inj.): 13.0 days
- Effect MST % T/C ([2]; d.1, IP, 32 mg/kg/inj.): 144%
- AWC Day 4 ([2]; d.1, IP, 64 mg/kg/inj.): -0.3 gm.
- Survivors Day 5(30) ([2]; d.1, IP, 64 mg/kg/inj.): 6/6
- MST ([2]; d.1, IP, 64 mg/kg/inj.): 14.5 days
- Effect MST % T/C ([2]; d.1, IP, 64 mg/kg/inj.): 161%
- optimal dose ([2]; single dose): 64 mg/kg
- antitumor activity [3]: inhibit the growth of tumors in experimental animals
- MIC ([4]; Klebsiella pneumoniae, 15130, read-out: Minimum Inhibitory Concentration): > 63 µg/mL
- MIC ([5]; Proteus vulgaris, 21559, read-out: Minimum Inhibitory Concentration): 2 µg/mL (≈ 4.04 µM)
- MIC ([6]; Streptococcus pneumoniae, 9585, read-out: Minimum Inhibitory Concentration): 0.13 µg/mL (≈ 0.263 µM)
- MIC ([7]; Staphylococcus aureus, 9587, read-out: Minimum Inhibitory Concentration): 0.06 µg/mL (≈ 0.121 µM)
- MIC [8]: 0.016 µg/mL (≈ 0.0324 µM)
- MIC ([9]; Enterobacter cloacae, 9659, read-out: Minimum Inhibitory Concentration): > 63 µg/mL
- MIC [10]: 0.25 µg/mL (≈ 0.506 µM)
- MIC ([11]; 9843A): > 63 µg/mL
- MIC ([12]; Serratia marcescens, 20019, read-out: Minimum Inhibitory Concentration): > 63 µg/mL
- MIC ([13]; Escherichia coli, 15119, read-out: Minimum Inhibitory Concentration): > 63 µg/mL
- MIC ([14]; Streptococcus pyogenes, 9604, read-out: Minimum Inhibitory Concentration): 0.13 µg/mL (≈ 0.263 µM)
- MIC ([15]; Proteus mirabilis, 9900, read-out: Minimum Inhibitory Concentration): > 63 µg/mL
- MIC ([16]; Escherichia coli, 203411, read-out: Minimum Inhibitory Concentration): > 63 µg/mL
- antimicrobial / antibiotic activity [17]: exhibit antimicrobial activity
- solubility in trituration solvents ([18]; acetone, 40:30:30 chloroform:methanol:tetrahydrofuran): insoluble
- solubility in chromatography solvents [18]: poor solubility

Structure (SMILES): COc1cc2c(oc(=O)c3cc(O)cc(OC)c32)c2c(C3OC(C(C)O)C(O)C3O)ccc(O)c12 (stereo not shown) [Component II]
- biological activity [19]: biologically inactive
- MIC ([4]; Klebsiella pneumoniae, K. pneumoniae 15130, read-out: Minimum Inhibitory Concentration): > 63 µg/mL
- MIC ([5]; Proteus vulgaris, Pr. vulgaris 21559, read-out: Minimum Inhibitory Concentration): > 63 µg/mL
- MIC ([6]; Streptococcus pneumoniae, Str. pneumoniae 9585, read-out: Minimum Inhibitory Concentration): 0.25 µg/mL (≈ 0.516 µM)
- MIC ([7]; Staphylococcus aureus, Staph. aureus 9587, read-out: Minimum Inhibitory Concentration): 0.13 µg/mL (≈ 0.268 µM)
- MIC ([8]; Str. faecalis 20,588): 0.13 µg/mL (≈ 0.268 µM)
- MIC ([9]; Enterobacter cloacae, Ent. cloacae 9659, read-out: Minimum Inhibitory Concentration): > 63 µg/mL
- MIC [10]: 0.5 µg/mL (≈ 1.03 µM)
- MIC ([11]; Ps. aeruginosa 9843A): > 63 µg/mL
- MIC ([12]; Serratia marcescens, Ser. marcescens 20019, read-out: Minimum Inhibitory Concentration): > 63 µg/mL
- MIC ([13]; Escherichia coli, E. coli 15119, read-out: Minimum Inhibitory Concentration): > 63 µg/mL
- MIC ([14]; Streptococcus pyogenes, Str. pyogenes 9604, read-out: Minimum Inhibitory Concentration): 0.5 µg/mL (≈ 1.03 µM)
- MIC ([15]; Proteus mirabilis, Pr. mirabilis 9900, read-out: Minimum Inhibitory Concentration): > 63 µg/mL
- MIC ([16]; Escherichia coli, 203411, E. coli 20341-1, read-out: Minimum Inhibitory Concentration): > 63 µg/mL
- solubility in chromatography solvents [18]: poor solubility
